{"source": "patent US20100113415A1", "about": "“EPHA4 RTK INHIBITORS FOR TREATMENT OF NEUROLOGICAL AND NEURODEGENERATIVE DISORDERS AND CANCER” (priority 2008, published 2010)", "key": {"[1]": {"target": "T1, Recombinant EphA4 kinase His6-TEV-EphA4 (aa. 615-911) (Homo sapiens, UniProt P54764)", "T1 construct": "His6-TEV-EphA4 (36 KD) (aa. 615-911); His6 (N); TEV cleavage site (N); made in house; host or cells: Sf9 (baculovirus)", "T1 sequence (P54764 615-911)": "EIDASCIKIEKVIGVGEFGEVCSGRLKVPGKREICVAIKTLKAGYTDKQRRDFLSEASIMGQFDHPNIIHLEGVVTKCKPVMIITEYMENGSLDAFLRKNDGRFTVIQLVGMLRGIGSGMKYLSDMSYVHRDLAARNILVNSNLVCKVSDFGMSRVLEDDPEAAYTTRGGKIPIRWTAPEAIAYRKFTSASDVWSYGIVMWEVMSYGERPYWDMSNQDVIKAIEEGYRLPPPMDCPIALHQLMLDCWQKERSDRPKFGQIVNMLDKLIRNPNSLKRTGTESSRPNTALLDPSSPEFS", "assay": "EphA4 kinase enzymatic assay (TR-FRET)", "assay_type": "biochemical", "conditions": "for IC50: 25 μM ATP, TR-FRET; for inhibition at up to 100 µM: maximum percent inhibition, titration starting at 100 μM, read-out: EphA4 Kinase max inhibition in %", "procedure": "Recombinant EphA4 kinase His6-TEV-EphA4 (36 KD) (aa. 615-911) was expressed in Sf9 using baculovirus expression system. Hi-tagged protein was purified by high performance liquid chromatography in two step, using a His Trap HP column and a heparin column. The potency of compounds to inhibit EphA4 kinase phosphorylation was measured by an enzymatic assay based on time resolved fluorescence energy transfer assay format (TR-FRET), using Eu-W1024 anti-pTyr antibody (Perkin Elmer, USA) as a donor and SureLight APC (Perkin Elmer, USA) as an acceptor.\nBiotinylated Poly(Glu Tyr) peptide (50 nM) was incubated in 384-well with 25 μM ATP (Sigma) and 10 ng EphA4 kinase in NEBuffer (New England Biolabs) for 60 minutes at rt. The reaction was stopped by 15 mM of EDTA solution for 10 minutes at rt. The detection mixture containing 0.5 nM Eu-W1024 anti-pTyr antibody (Perkin Elmer, USA) and 50 nM SureLight APC (Perkin Elmer, USA) was added to the wells and the plate was incubated for 30 min at rt, while protected from light. Energy transfer signal was measured using a Victor 2V (excitation filter 340, emission filter 615 and 665, delay time 50 μs). Results were expressed as ratios of the absorbencies 665/615.\nCompounds were titrated in duplicate at 11 points concentration starting at 100 μM with a 3 fold increment. Compounds were diluted in DMSO. […] Percentage inhibition for each compound was then calculated based on the value of the 100% inhibition. Concentration-response curves were represented and the concentrations for 50% inhibition (IC50) were calculated."}, "[2]": {"system": "C2C12 mouse myoblast cell line", "assay": "Scratch wound assay, C2C12 cells", "assay_type": "cell-based", "conditions": "from AUC of % wound confluence; for IC50: Mus musculus, C2C12, inflexion point, read-out: Scratch Assay C2C12 Cells IP", "procedure": "Cell Cultures: C2C12 mouse myoblast cell line (ATCC, VA, USA) was maintained in culture in DMEM media supplemented with 10% fetal bovine serum, 1 mM sodium pyruvate, 1.5 g/L sodium bicarbonate, and 100 IU of penicillin, […] of streptomycin. The cells were then differentiated into myotubes with DMEM supplemented with 2% horse serum for 3 days in 24 well ImageLock™ plate (Essen Instruments, MI, USA).\nScratch wound assays are commonly used to assess the effects of drugs and drug candidates on the cellular proliferation and/or migration associated with wound closing. The IncuCyte™ system (Essen Instruments, MI, USA), an automated imaging platform, provides ongoing, real-time images and quantitative data generated throughout the wound-closing process. Cells were maintained in 24 well ImageLock™ (Essen Instruments, MI, USA) at 37° C. and 95% CO2/5% O2, until a confluent monolayer was achieved. A single scratch wound was then created in each well using the Essen Woundmaker™ (Essen Instruments, MI, USA). It induced a mechanical scratch of the cell monolayer using plastic pipette tips (10-20 μl pipette tips, Eppendorff). Dead cells and other debris produced by the scratch were immediately washed with regular growth media. Cells were then treated with pharmacological agents and were placed into the IncuCyte™ at 37° C. and 95% CO2/5% O2, for two to three days. During this time, the wound area within each well was repeatedly imaged at fixed time intervals (every three hours). The IncuCyte™ scratch wound software generates a “wound mask” for each well. An initial wound mask is created for the first image (at time 0) that clearly delineates the border of the wound. A revised mask is generated for each subsequent image to track wound closure. Wound closure can be automatically monitored using the wound confluence (% confluence). Wound confluence can be graphed over time to evaluate the characteristics of wound closing in the presence of pharmacological agents.\nThe calculation of the area under the curve (AUC) of the % confluence function of the time gave a quantitative measurement of compounds efficacy on the scratch wound closing. Compounds were titrated in quadruplicate at 5 points concentration starting at 20 μM with a two-fold increment. The percentage of inhibition was calculated from the AUCs at each dose in comparison with the AUCs of the control wells (1% DMSO). Concentration-response curves were represented and the concentrations at the inflexion point (IP) were calculated. The maximum effect was given by the maximum percent inhibition."}}, "data": [{"smiles": "Cc1ccccc1-c1nc2[nH]nc(N)c2c2c1CCC(C)(C)C2", "note": "[Example 67]", "values": [{"measurement": "IC50", "setting": "[1]", "result": 1.5, "unit": "µM"}, {"measurement": "inhibition at up to 100 µM", "setting": "[1]", "result": 100, "unit": "%"}, {"measurement": "IC50", "setting": "[2]", "result": 0.5, "unit": "µM"}, {"measurement": "Scratch Assay C2C12 Cells max inhibition in %", "setting": "[2]", "result": 78, "unit": "%"}]}, {"smiles": "CC1CCc2c(-c3ccccc3Cl)nc3[nH]nc(N)c3c2C1", "note": "(centres unmarked) [Example 63]", "values": [{"measurement": "IC50", "setting": "[1]", "result": 2.1, "unit": "µM"}, {"measurement": "inhibition at up to 100 µM", "setting": "[1]", "result": 99, "unit": "%"}, {"measurement": "IC50", "setting": "[2]", "result": 3.1, "unit": "µM"}, {"measurement": "Scratch Assay C2C12 Cells max inhibition in %", "setting": "[2]", "result": 46, "unit": "%"}]}]}
